{"source": "patent US7371555B2", "about": "“Polypeptides having α-H-α-amino acid amide racemase activity and nucleic acids encoding the same” (DSM IP Assets B.V., priority 2002, dated 2008)", "key": {"[1]": {"test": "Stability of substrate in chemical blanks (HEPES-NaOH buffer without cells)", "format": "physicochemical", "settings": "HEPES-NaOH buffer pH 7.7, 139 hours, concentration constant (0.7 w/w %)", "experimental": "1 ml Of disintegrated cells of each of the three strains was incubated in a HEPES-NaOH buffer (20 mM) pH 7.7, to which pyridoxal-5-phosphate (0.01 mM) was added as a cofactor and D-leucine amide (60.8 mM) as a substrate in a total volume of 10 ml (0.79 w/w % D-leucine amide). After 0 and 139 hours 1 ml samples were taken (of which the exact weight was measured) and the reaction in these samples was stopped by adding 1 ml methanol (of which the exact weight was measured too; to be able to calculate dilution factors). Stopped reaction mixtures were centrifuged to remove particulates. The supernatants were frozen at −86° C. until HPLC analysis according to the method given in Example 1. […]\nFrom the table it can be seen that α-H-α-amino acid amide racemase activity is present in the disintegrated cells of Agrobacterium rhizogenes Na, Agrobacterium rhizogenes Bi and Arthrobacter nicotianae as D-leucine amide is converted into L-leucine; this conversion is not detected in the chemical blanks. In the chemical blanks no D-leucine or L-leucine could be detected even after 139 hours; the D-leucine amide concentration was constant (0.7 w/w %) meaning that D-leucine amide is very stable under the applied reaction conditions."}, "[2]": {"system": "E. coli clone containing the O. anthropi IA α-H-α-amino acid amide racemase gene (pOa(1)PLV49B10)", "test": "Confirmation of potential positive clone of the O. anthropi IA gene library", "format": "cell-based, Ochrobactrum anthropi IA", "settings": "70 mM substrate, 20 h at 30° C.", "experimental": "(§1) Of all 32 potential positive clones identified in the screening, material from the masterplates was used to inoculate 3 ml of liquid screening medium containing 50 mg/l kanamycin. After growth for 2 days at 30° C., cells were collected by centrifuging 2 ml of these cell cultures. Then the cell pellets were washed four times in 25 mM Tris-HCl buffer, pH 7.5. Subsequently, the cell pellets were resuspended in 100 μl substrate solution containing 70 mM of D-phenylalanine amide, or D-leucine amide, or D-valine amide in 50 mM Tris-HCl, pH 7.5 and 1 mM MnCl2. After incubation for 20 h at 30° C., the reactions were stopped by the addition of 100 μl of 0.15 M HCl, after which the reaction mixtures were analyzed by the HPLC method described in Example 1.\nThis clone contained the O. anthropi IA α-H-α-amino acid amide racemase gene on its 7.7 kb plasmid. This was concluded from the fact that transformation of this plasmid into E. coli TOP10 cells inevitably led to recombinant cells that converted D-leucine amide into L-Leucine. […] The sequence of this gene is listed as nucleotides 98 to 1417 (including the TAA stopcodon) of SEQ ID NO:1 encoding the protein of SEQ ID: NO. 2 as presented infra."}, "[3]": {"system": "E. coli clones with plasmid encoded A. nicotianae NCIMB 41126 α-H-α-amino acid amide racemase activity", "test": "Confirmation of potential positive clones of the A. nicotianae NCIMB 41126 gene library", "format": "cell-based, Arthrobacter nicotianae NCIMB 41126", "settings": "70 mM substrate, 10 μM pyridoxal-5-phosphate, 20 h at 30° C.", "experimental": "as §1\nConfirmation of both potential positive clones was done according to the protocol given in Example 3, with the exception that all 3 substrate solutions used contained 10 μM of pyridoxal-5-phosphate."}}, "data": [{"smiles": "CC(C)C[C@@H](N)C(N)=O", "note": "[D-leucine amide]", "values": [{"measurement": "stability under the applied reaction conditions", "setting": "[1]", "result": "very stable"}, {"measurement": "formation of L-leucine from D-leucine amide", "setting": "[2]", "result": "significant formation of L-leucine"}, {"measurement": "conversion of D-amide into L-acid", "setting": "[3]", "result": "significantly converted"}]}]}
